Source: patent publication US20250000859A1, “USE OF GCN2 INHIBITORS IN TREATING CANCER” (Alesta Therapeutics BV, priority 2021, published 2025)
pIC50: −log10 of the molar value. Where two headings read alike, the source gives them in different places.

Legend:
A498 (ASS1low) cells = assay: Relative cell viability, Nuclear-ID Red / Annexin V staining (Example E); format: cell-based; details: 16 μM arginine, 4 days
Method: (§1) To assess the effectiveness of Compound 1 and Compound 2: A^498 (ASS1low) and 769-P (ASS1high) cells were seeded at a density of 2000 cells/well in 96-well plates in RPMI medium with 16 μM arginine, 1 g/L glucose, 2 mM L-glutamine, and 10% FCS and allowed to adhere overnight.
(§2) Cells were then treated with increasing amounts of the indicated compounds for 4 days. Afterward, cell viability was determined by staining the nuclei of the living cells with NUCLEAR-IDR Red DNA stain (Enzo Life Sciences) and the apoptotic/death cells with Annexin V CF488A (Biotium) and scanning the plates with an IncuCyte S3 instrument. Viable cells were classified as Nuclear-ID Red high and Annexin V CF488A low and relative viability was expressed as a percentage of the total number of cells/well.

769-P (ASS1high) cells = assay: as above; format: cell-based; details: 16 μM arginine, 4 days
Method: as §1, §2

HCT116 spheroids = assay: Tumor spheroid growth, live-cell imaging (Example C); format: cell-based; details: ASS1-high HCT116 spheroids, 0-20 μM, up to 120 hours
Method: (§3) The growth of tumor spheroids was evaluated following treatment of cells with Compound 1, Compound 2. Briefly, HT29 or HCT116 cells were seeded at 5,000 cells/well in ultra-low attachment round-bottom 96-well plates, in 100 μL SILAC DMEM Flex media without phenol red, supplemented with 10% fetal bovine serum (FBS), 1 g/L glucose, 2 mM glutamine, 220 μM lysine, and 64 μM arginine. The plates were centrifuged for 10 minutes at 125×g and put in a humidified incubator at 37° C. for 3 days before the onset of the experiment to allow spheroids to form.
(§4) Three days after seeding, 0-20 μM Compound 1, 0-20 μM Compound 2, or […] vehicle control (0.1% DMSO), were added together with the Nuclear-ID Red DNA Stain (1:100,000; ENZO Life Sciences) to detect live cells. Plates were placed in live-cell imaging and analysis platform (e.g., IncuCyte ZOOM®; 15 Essenbio) set up in a humidified incubator at 37° C. and scanned every 4 hours for up to 120 hours, at 10× magnification, to determine the relative spheroid size and cell death. Experiments were performed in quadruplicate and analyzed using live-cell imaging and analysis software (e.g., IncuCyte ZOOM® 2018A software; Essenbio).

HT29 spheroids = assay: as above; format: cell-based; details: ASS1-low HT29 spheroids, 0-20 μM, up to 120 hours
Method: as §3, §4

HCT116 cells [1] = assay: EdU incorporation (Example I); format: cell-based; details: HCT116 cells (high ASS1), arginine 6.25-100 μM
Method: (§5) EdU incorporation levels of cancer cell lines was evaluated following treatment with compound 1, compound 2, compound 3, or vehicle control (0.1% DMSO). Briefly, HT29 and HCT116 cells were seeded at 2,500 cells/well in 96 well plates in 100 μl SILAC DMEM flex media without phenol red, supplemented with 10% dialyzed fetal bovine serum (dFBS), 1 g/l glucose, 2 mM glutamine, 220 μM Lysine, and various concentrations of arginine (6.25 μM, 12.5 μM, 25 μM, and 100 μM). The cells were put in a humidified incubator at 37° C. for 24 hours. The next day compounds were added to the cells at a concentration of […]. At day 3, cells were incubated with 10 μM EdU for 24 hours. The next day EdU positive cells were labeled using the Click-it reaction cocktail per manufacturing protocol using Amplex UltraRed Dye. Fluorescence was measured using a microplate reader using filter sets appropriate for Amplex™ UntraRed reagent (ex 568 nm and em 585 nm).

HT29 cells [2] = assay: EdU incorporation (Example I); format: cell-based; details: HT29 cells (low ASS1), arginine 6.25-100 μM
Method: as §5

[3] = tested on: Renca, CT26, MC38, B16F10 tumor cells; assay: In vivo tumor models, tumor volume (Example J); design: species or system BALB/c or C57BL/6 mice; details: for inhibition in tumor volume compared to control: Compound 1: 30 mg/kg p.o. BID, Compound 2: 20 mg/kg p.o. BID, endpoint day 11-20 depending on model
Method: Effect of GCN2 inhibition on in vivo xenograft tumor models of various ASS1 low cancer models was evaluated following treatment with compound 1, compound 2, or vehicle control. Briefly, 1,000,000 tumor cells with a total volume of 100 μl were injected into the rear flank region of 6-8 week old BALB/c or C57BL/6 female mice. The following tumor cell lines were tested: renica (renal adenocarcinoma), CT26 (colon cancer), MC 38 (colon adenocarcinoma), B16F10 (melanoma) When tumors reached a size of approximately […], mice were treated orally (PBS, 10 μl/g, i.p., twice weekly (BIW); Compound 1: 30 mg/kg, 10 μl/g, p.o., twice daily (BID); or Compound 2: 20 mg/kg, 10 μl/g, p.o., BID). Tumor volumes were measured every 3-4 days. Endpoint measurements as presented were measured at day 20 (Renca), day 14 (CT26), day 17 (MC38), and day 11 (B16F10).

A498 cells = assay: Cell viability, ATPlite luminescence (Example H); format: cell-based; details: A498 cells (low ASS1)
Method: The viability of cancer cell lines was evaluated following treatment with compound 2. Briefly, 769P and A498 cells were seeded at 100-6,400 cells/well in 96 well plates in 100 μl SILAC DMEM flex media without phenol red, supplemented with 10% dialyzed fetal bovine serum (dFBS), 1 g/l glucose, 2 mM glutamine, 220 μM Lysine, and 64 μM arginine. The cells were put in a humidified incubator at 37° C. for 24 hours. The next day compounds were added at various concentrations. At the end of the experiment, ATPlite 1 Step™ (Perkin Elmer) solution was added to each well and shaken for 2 minutes. After incubation of 10 min in the dark, luminescence was recorded on a Envision Multimode Reader to determine cell viability.

HCT116 cells [4] = assay: Growth of colonies/spheroids in soft agar, 5 days (Example G); format: cell-based; details: Homo sapiens, HCT-116, 120 h, HCT116 cells (ASS1 high), 64 μM arginine, read-out: IC50, growth inhibition
Method: (§6) The growth of tumor spheroids was evaluated following treatment with Compound 2. Briefly, HT29 cells were seeded at 2,000 cells/well and HCT116 cells were seeded at 1,000 cells/well in ultra-low attachment round bottom 96-well plates in soft agar with 100 μl SILAC DMEM flex media without phenol red, supplemented with 10% Dialyzed fetal bovine serum (dFBS), 1 g/l glucose, 2 mM glutamine, 220 μM Lysine, and 64 μM arginine. Various concentrations of compound 2 (1.37 nM, 4.11 nM, 12.3 nM, 37 nM, 111 nM, 333 nM, and 1000 nM) were added. Plates were placed in a humidified incubator at 37° C. and incubated for 5 days, allowing colonies to form. At endpoint, images were taken by light microscopy (3 images per well) and analyzed using ImageJ software.

HT29 cells [5] = assay: as above; format: cell-based; details: HT29 cells (ASS1 low), 64 μM arginine, read-out: IC50, growth inhibition
Method: as §6

Row | pIC50 (HCT116 cells [4]) | pIC50 (HT29 cells [5]) | pIC50 (HT29 cells [5]; Homo sapiens, HT-29, 120 h) | Compound | relative cell viability (A498 (ASS1low) cells) | relative cell viability (769-P (ASS1high) cells) | spheroid growth (HCT116 spheroids) | spheroid growth compared to DMSO-treated spheroids (HT29 spheroids) | EdU labeling (HCT116 cells [1]) | EdU labeling (HT29 cells [2]) | reduction in tumor volume compared to control ([3]; 30 mg/kg p.o. BID, Renca, CT26, MC38, B16F10, FIG. 9A) | inhibition in tumor volume compared to control [3] | cell death (percent viability vs untreated cells) (A498 cells)
1 | – | – | – | COc1ncc(Cl)cc1S(=O)(=O)Nc1ccc(F)c(-c2ccc3nc(N)ncc3c2)c1F [Compound 1] | significantly reduces relative cell viability in a dose-dependent manner | did not significantly relative cell viability | does not reduce spheroid growth | significantly reduces spheroid growth in a dose-dependent manner | have a smaller effect on EdU labeling | cause significantly higher levels of EdU labeling | 60-70% | caused a significant inhibition in tumor volume compared to control | –
2 | 5.88 | 7.29 | 7.28 | Nc1ncc2cc(-c3c(F)ccc(NS(=O)(=O)c4cc(Cl)ccc4Cl)c3F)ccc2n1 [Compound 2] | significantly reduces relative cell viability in a dose-dependent manner | did not significantly relative cell viability | does not reduce spheroid growth | significantly reduces spheroid growth in a dose-dependent manner | have a smaller effect on EdU labeling | cause significantly higher levels of EdU labeling | – | caused a significant inhibition in tumor volume compared to control | resulted in a significant level of cell death
3 | – | – | – | Nc1ncc(C#Cc2c(F)ccc(NS(=O)(=O)c3cc(Cl)cc(CO)c3Cl)c2F)cn1 [Compound 3] | – | – | – | – | have a smaller effect on EdU labeling | cause significantly higher levels of EdU labeling | – | – | –
